Patent publication US20250186461A1, “METHODS AND COMPOSITIONS FOR TREATING AND/OR PREVENTING HERNIAS” (Northwestern University, priority 2023, published 2025)
“Also recorded” adds a separate entry of the source.

Legend:
Arom^hum mice [1] = experiment: Hernia prevention in Arom^hum mice (treatment before hernia formation); type: in vivo, mouse; conditions: for hernia formation / hernia size: male Arom^hum mice, 12-week treatment started at 3-3.5 weeks of age (before hernia formation)
Description: Our study design is robust, utilizing Arom^hum mice with endpoints examined after treatment with placebo or anti-P4/PGR, and compared to those of WT littermates using 2 different tissue sites: UAM and LAM (normal or weakened/herniated). Inguinal hernia affects predominantly men vs. women (10:1 ratio). Inguinal hernias are unique to male mice and aged men. […] Here, we will focus on the effects of P4/PGR action on skeletal muscle integrity and hernia formation in males, and our work will be carried out in male mice or tissues primarily from men over 50 years of age. We will use mouse or human tissues or primary cells to closely recapitulate in vivo pathology.
The mouse scrotum is connected to the peritoneal cavity with a narrow funicular (or inguinal) canal, with walls composed of LAM tissue. Structurally normal LAM tissue is essential to maintain the tone of this canal and prevent herniation of the bowel.
Experiment 1a1: Does the addition of P4 to E2 treatment accelerate LAM fibrosis and hernia formation in WT mice? […] We hypothesize that this effect is primarily mediated by the E2 induction of PGR expression in LAM fibroblasts. […] If this were true, the addition of pharmacologic quantities of P4 (75 mg/pellet for 12-week release)^73 to E2 (0.3 mg/pellet for 12-week release)^23-25 in WT mice should accelerate this phenotype. […] See Statistical Methods above for sample size calculation. Hernia surface area will be measured using a digital caliper and calculated as previously described (length×width)^19. At the designated endpoints, LAM and UAM (control) from each mouse will be resected, with one-half of the tissue snap-frozen in liquid nitrogen, and the other half fixed in 4% phosphate-buffered paraformaldehyde for histological and IHC analyses (see below). All tissue and serum (for P4/E2 levels) samples will be collected between 10:00 AM and noon to avoid possible variability in daily hormone fluctuations. […] We will continue to complete the rest of the proposed study in this subaim. We will also assess whether and extent of muscle fibrosis and atrophy will be induced in P4+E2-induced large hernias and E2-induced small hernias. […] P4 antagonists show various levels of selectivity for PGR. […] The use of 3 distinct P4/PGR antagonists with different properties will establish the role of PGR in muscle fibrosis and hernia.
(§1) Hernias will be classified as small, medium, or large if the bulging area through muscle tissue is 125-175 mm^2, 175-225 mm^2, or >225 mm^2, respectively. […] We will assess whether muscle fibrosis, atrophy, and hernia are arrested or reversed. […] Hernia size will be measured. After completion of treatment, the mice will be dissected, and LAM, UAM (control), and serum will be collected. A total of 100 mg of tissue (LAM and UAM) will be obtained and frozen for measurement of tissue E2/P4.

Arom^hum mice [2] = experiment: Halting progression of small/medium-sized hernias in Arom^hum mice; type: in vivo, mouse; conditions: 12-week treatment started when small/medium-sized hernias were formed, n=10, vs placebo
Method: The treatment started when small/medium-sized hernias were formed. ****p<0.0001.
as §1, with “E2/P4. Circulating and tissue E2/P4 levels will be measured using LC-MS^2. We will use immunoblotting and IHC to determine PGR expression in LAM and UAM tissues. PGR target gene expression (Greb1, Cyp7b1) will be measured in paraformaldehyde-fixed LAM tissues using RNAScope and IHC. […] We will continue to complete the rest of the proposed study in this subaim. We will also assess whether muscle fibrosis, atrophy, and large hernia are halted.” for “E2/P4.”

[3] = system: LAM fibroblasts from Arom^hum mice; experiment: Click-iT EdU proliferation assay; type: cell-based, mouse; conditions: 1 μM antagonist; E2 (10 nM)+R5020 (100 nM)
[4] = system: LAM primary fibroblasts from Arom^hum mice; experiment: mRNA levels of P4/PGR-responsive and fibrotic genes in LAM primary fibroblasts; type: cell-based, mouse; conditions: for E2+R5020-stimulated expression of Col1a1 and Col12a1, blockade: pretreatment with 1 μM antagonist
aromatase enzyme = molecular target: T1, aromatase enzyme (Homo sapiens, UniProt P11511); conditions: cited from earlier work
T1 sequence (P11511 1-503): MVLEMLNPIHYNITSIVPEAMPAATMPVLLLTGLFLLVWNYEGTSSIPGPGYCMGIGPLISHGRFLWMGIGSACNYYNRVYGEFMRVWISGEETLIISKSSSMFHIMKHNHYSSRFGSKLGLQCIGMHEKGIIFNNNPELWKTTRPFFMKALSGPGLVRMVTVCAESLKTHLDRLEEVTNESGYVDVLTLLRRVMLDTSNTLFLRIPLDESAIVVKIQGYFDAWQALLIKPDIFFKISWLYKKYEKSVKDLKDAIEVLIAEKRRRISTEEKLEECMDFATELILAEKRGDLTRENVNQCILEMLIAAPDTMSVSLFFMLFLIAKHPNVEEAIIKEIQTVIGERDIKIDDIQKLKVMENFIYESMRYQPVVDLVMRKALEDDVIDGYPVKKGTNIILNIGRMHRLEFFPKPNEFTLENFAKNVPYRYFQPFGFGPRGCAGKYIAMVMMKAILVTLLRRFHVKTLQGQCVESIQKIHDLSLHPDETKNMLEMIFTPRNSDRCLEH

Row | Structure (SMILES) | hernia formation / hernia size (Arom^hum mice [1]; vs placebo) | progression (growth) of small/medium-sized hernias, hernia area (Arom^hum mice [2]) | inhibition of E2+R5020-stimulated LAM fibroblast proliferation [3] | E2+R5020-induced expression of P4/PGR-responsive (Greb1, Cyp7b1) and fibrotic genes (Adamtsl1, Col1a1, Col14a1) ([4]; 1 μM antagonist, pretreated 2 h before E2 (10 nM)+R5020 (100 nM)) | E2+R5020-stimulated expression of Col1a1 and Col12a1, blockade [4] | inhibition of aromatase enzyme activity (aromatase enzyme) | LAM fibroblast proliferation in vivo (Ki67 IHC staining) (Arom^hum mice [1]; Arom^hum mice, placebo or RU486, n=6) | LAM tissue fibrosis, ECM deposition and myocyte atrophy (Masson's trichrome staining) (Arom^hum mice [1]; Arom^hum mice, vs placebo) | PGR-positive fibroblasts in LAM tissue (PGR IHC staining) (Arom^hum mice [1]; Arom^hum mice, vs placebo, n=10) | scrotal area (Arom^hum mice [1]; RU486-treated Arom^hum mice vs WT littermates)
1 | CC(=O)O[C@]1(C(C)=O)CC[C@H]2[C@@H]3CCC4=CC(=O)CCC4=C3[C@@H](c3ccc(N(C)C)cc3)C[C@@]21C [UPA, Ulipristal acetate] | prevented hernia formation in Arom^hum mice; also recorded: also prevented hernia formation | halted the progression of small/medium-sized hernias in Arom^hum mice; also recorded: halted the growth of small- and medium-size hernias in all treated Arom^hum mice | inhibited; also recorded: blocked | significantly decreased | blocked | does not inhibit aromatase enzyme activity |  |  |  | 
2 | CC#C[C@]1(O)CC[C@H]2[C@@H]3CCC4=CC(=O)CCC4=C3[C@@H](c3ccc(N(C)C)cc3)C[C@@]21C [RU486, Mifepristone] | prevented hernia formation in Arom^hum mice; also recorded: strikingly reduced hernia size or entirely prevented hernia development in all Arom^hum mice | halted the progression of small/medium-sized hernias in Arom^hum mice; also recorded: halted the growth of small- and medium-size hernias in all treated Arom^hum mice | inhibited; also recorded: blocked |  | blocked | does not inhibit aromatase enzyme activity | blocked | prevents LAM fibrosis, excessive ECM deposition or myocyte atrophy; also recorded: prevented LAM tissue fibrosis and atrophy in all treated Arom^hum mice | much fewer fibroblasts with PGR IHC staining; also recorded: severely reduced numbers of PGR-positive fibroblasts | slightly larger than that of WT littermates but was maintained within the upper limit of normal with no evidence of herniation
